The source of these data is EP2324824A2, “Medical application of lipid derivatives of dopamine” (Instytut Medycyny Doswiadczalnej I Klinicznej, priority 2009, dated 2011).

The subject of series [1] is awake Wistar rats. The series can be described thus: Respiration in normoxia and hypoxia in the awake rat (plethysmographic chamber). Particulars: for Minute lung ventilation (peak respiratory response): after haloperidol 0.9 mg/kg i.p. and N-oleoyl-dopamine 40 mg/kg i.p. The series is classed as in vivo. The protocol: The study was performed in awake Wistar rats in a computerized plethysmographic chamber for small rodents. Respiratory frequency, tidal volume and pulmonary ventilation were measured. The experimental protocol included recordings in normoxia (breathing with atmospheric air), two levels of hypoxic stimulus (8% and 12% O2 in N2), intraperitoneal (i.p.) administration of N-oleoyl-dopamine (in a dose of 40 mg/kg) and repeated recordings for both normoxic and hypoxic states. Additionally, further experiments with the dopamine receptor antagonist haloperidol (in a dose of 0.9 mg/kg, i.p.) were performed. In those experiments, haloperidol was administered prior to N-oleoyl-dopamine and the recordings according the above-mentioned protocol were repeated. […]

For series [2], the system named is animal model of Parkinson's disease. Briefly: Muscle rigidity in reserpine + α-methyl-tyrosine model of Parkinson's disease (EMG). The series is classed as in vivo, rats. To be noted: 10 mg/kg. How it is done:
Symptoms of the Parkinson's disease, particularly muscle rigidity during flexion and extension movements in the ankle joint, were induced with reserpine (2.5 mg/kg, i.p.) and α-methyl-tyrosine (α-MT, 250 mg/kg, i.p.) administered at a 16-h interval. Afterwards, 3'-O-methyl-N-oleoyl-dopamine (O-Me-OLDA) was administered at a dose of 10 mg/kg and the muscular tone was measured using electromyographic (EMG) techniques. The control groups consisted of a) only vehiculum-treated animals in which no symptoms of Parkinson's disease were induced (control), b) animals who received only 3'-O-methyl-N-oleoyl-dopamine (O-Me-OLDA) and c) animals in which symptoms of Parkinson's disease were induced (reserpine + α-MT), but no other treatment was introduced.

Series [3] deals with TRPV1 vanilloid receptors (Homo sapiens, UniProt Q8NER1). To be noted: mentioned in the literature; cited from earlier work.
Series [4] deals with anesthetized, paralyzed and artificially ventilated Wistar rats. The series can be described thus: Respiratory response to hypoxia in the anesthetized rat (integrated phrenic nerve activity). To be noted: for peak respiratory response in relation to the starting-point values: substance alone: N-oleoyl-dopamine 20 mg/kg, haloperidol 3 mg/kg, domperidone 0.3 mg/kg; for effect on respiration in the second inhibitory phase of the response to hypoxia: substance alone, 14% and 11 % hypoxia. The series is classed as in vivo. The protocol:
The study was performed in anesthetized, paralyzed and artificially ventilated Wistar rats. During the experiments, the integrated activity of the phrenic nerve was recorded. This activity reflects the frequency and tidal volume; their product represents the index of minute lung ventilation. The experimental protocol consisted of control recordings for two levels of the hypoxic stimulus: 14% and 11 % O2 in N2. Afterwards, N-oleoyl-dopamine in a dose of 20 mg/kg was given and the recordings were repeated. Additionally, experiments with two dopamine receptor antagonists were performed: first, with the penetrating through the blood-brain barrier D2 dopamine receptor antagonist haloperidol and second, with the non-penetrating through the blood-brain-barrier domperidone. In these studies, after the control recordings, haloperidol (in a dose of 3 mg/kg) or domperidone (in a dose of 0.3 mg/kg) were administered and the recordings repeated. Then, N-oleoyl-dopamine was given and the recordings were repeated.

The subject of series [5] is rat. To be noted: cited from earlier work.
For series [6], the system named is rat brain membrane system. The series is classed as in vivo, Wistar rats. To be noted: 20 mg/kg intraperitoneal. How it is done: N-oleoyl-dopamine was administered to Wistar rats at a dose of 20 mg/kg. After 1, 2, 3 or 24 hours the rat was sacrificed and the brain was resected. From the tissue, the whole lipid fraction, containing all lipids of the brain and the membrane fraction of the rat brain were obtained. Total lipids were obtained by homogenization of the brain in a mixture of chloroform and methanol 2:1 followed by an extraction of the water-soluble fractions and evaporation of the solvent. The membrane phase was obtained according to Xu et al. (Xu, 1998) and extracted with chloroform to obtain membrane lipids. All obtained samples were analyzed by the thin layer chromatography TLC on silica gel plates 60 using a mixture of chloroform and methanol 95:5 as the mobile phase and N-oleoyl-dopamine as the standard. The Retention Factor (Rf) for the N-oleoyl-dopamine standard was equal to 0.24-0.26. At the same level (the same Rf = […]) there were bands corresponding to N-oleoyl-dopamine in the biological samples, that is after systemic N-oleoyl-dopamine injection, but not in the control samples obtained with no N-oleoyl-dopamine injection.

The subject of series [7] is brain. To be noted: after injection into the carotid artery; cited from earlier work.
The conditions of series [8]: in vitro conditions; cited from earlier work.
Series [9] deals with rat model of Parkinson's disease. To be noted: cited from earlier work.
Setting [10] is: 8% hypoxia, 40 mg/kg i.p., awake rat.
The mark [11] stands for this setting: 8% hypoxia, after 40 mg/kg i.p., awake rat.
[12] abbreviates: normoxia, 40 mg/kg i.p., awake rat.
Where [13] appears, read: N-oleoyl-dopamine 20 mg/kg given after domperidone 0.3 mg/kg.
Where [14] appears, read: N-oleoyl-dopamine 20 mg/kg given after haloperidol 3 mg/kg.

Sequence of TRPV1 vanilloid receptors (Q8NER1 whole entry): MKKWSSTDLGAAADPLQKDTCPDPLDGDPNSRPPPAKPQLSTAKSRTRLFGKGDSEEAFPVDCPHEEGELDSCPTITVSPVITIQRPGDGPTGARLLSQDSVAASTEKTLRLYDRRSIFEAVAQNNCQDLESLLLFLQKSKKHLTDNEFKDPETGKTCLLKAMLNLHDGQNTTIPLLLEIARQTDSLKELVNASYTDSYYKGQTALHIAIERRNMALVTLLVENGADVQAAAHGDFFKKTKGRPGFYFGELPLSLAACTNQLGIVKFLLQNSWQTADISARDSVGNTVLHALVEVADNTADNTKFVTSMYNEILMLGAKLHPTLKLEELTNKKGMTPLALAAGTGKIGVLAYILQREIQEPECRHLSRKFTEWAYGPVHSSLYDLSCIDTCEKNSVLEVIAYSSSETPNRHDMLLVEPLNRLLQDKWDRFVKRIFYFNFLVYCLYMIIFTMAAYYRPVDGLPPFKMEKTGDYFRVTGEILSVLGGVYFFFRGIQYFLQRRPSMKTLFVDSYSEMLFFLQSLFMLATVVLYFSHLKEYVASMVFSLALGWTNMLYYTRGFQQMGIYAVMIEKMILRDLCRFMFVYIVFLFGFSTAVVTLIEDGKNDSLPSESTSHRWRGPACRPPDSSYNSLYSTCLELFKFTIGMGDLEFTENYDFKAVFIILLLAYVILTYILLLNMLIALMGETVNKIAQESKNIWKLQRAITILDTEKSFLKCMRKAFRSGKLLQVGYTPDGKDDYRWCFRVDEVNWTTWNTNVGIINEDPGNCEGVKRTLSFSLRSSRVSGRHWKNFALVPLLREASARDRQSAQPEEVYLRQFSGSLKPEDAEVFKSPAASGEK

Turning to `CCCCCCCC/C=C\CCCCCCCC(=O)NCCc1ccc(O)c(OC)c1` [3'-O-methyl-N-oleoyl-dopamine], the “reduction of peak respiratory response” value in series [1] (setting [10]) turned out to be 19%. In series [1] (setting [11]), this compound displayed a peak respiratory response of 1939 ±255 ml/min/kg body weight. Moreover, the “decrease of resting ventilation during breathing with atmospheric oxygen” value in series [1] (setting [12]) came out at 23%. The “resting ventilation during breathing with atmospheric oxygen” value in series [1] (normoxia, after 40 mg/kg i.p., awake rat) worked out at 779.7 ±148.7 ml/min/kg body weight. The muscle rigidity entry in [2] (rats treated with reserpine 2.5 mg/kg i.p. + α-MT 250 mg/kg i.p.) is “abolished muscle rigidity”. For the same compound, the “muscle tone in comparison to control recordings” value in [2] (substance alone, no Parkinson symptoms induced) is “did not change the muscle tone”. Besides, the “muscle tone (force needed for flexion and extension of the ankle joint)” value in [2] (three-fold elevated level of muscle tone by reserpine, Fig.1) was “decreases nearly down to the control level”. In addition, the “action towards TRPV1 vanilloid receptors” value in series [3] is recorded as “agonistic action”.

Take `O=C(CCCN1CCC(O)(c2ccc(Cl)cc2)CC1)c1ccc(F)cc1` [haloperidol, reference compound]: the results for the “peak respiratory response in relation to the starting-point values” (“peak respiratory response in relation” below) in [4] (11 % hypoxia (O2 in N2)) and in [4] (14% hypoxia (O2 in N2)) were 22 ±5% and 18 ±3%, respectively. Moreover, the “effect on respiration in the second inhibitory phase of the response to hypoxia” value in [4] is recorded as “diminished the respiration”.

For `CCCCCCCC/C=C\CCCCCCCC(=O)NCCc1ccc(O)c(O)c1` [N-oleoyl-dopamine], the locomotor activity entry in series [5] is listed as “increases the locomotor activity”. In addition, the “penetration into the membrane system of the brain” value in series [6] (brain taken after 1, 2, 3 or 24 hours) is “penetrates into the membrane system of the rat brain”. Further, the “time staying unchanged bound to the brain membrane system” value in series [6] (rat brain) was “at least 24 hours”. Further, the “peak respiratory response in relation” value was 38 ±9% in series [4] (11 % hypoxia (O2 in N2)) and 18 ±10% in [4] (14% hypoxia (O2 in N2)). Moreover, the “effect on respiration in the inhibitory phase” value in series [4] (setting [13]) is recorded as “still diminished the respiration”. Also, the “effect on response to hypoxia in the stimulatory phase” value in series [4] (setting [13]) is recorded as “did not change the response to hypoxia”. Besides, the “effect on respiratory response in the first stimulatory phase” value in [4] (setting [14]) is “did not restore the respiratory response”. In addition, the “effect on respiratory response in the second inhibitory phase” value in series [4] (setting [14]) is listed as “still diminished it”. The “effect on respiration in the second inhibitory phase of the response to hypoxia” value in series [4] is “reduced the respiratory response to hypoxia”. Also, the “penetration into the brain” value in series [7] was “ability to penetrate into the brain”. In addition, in series [8], the stability entry is “highly stable”. Further, the “reduction of peak respiratory response” value was determined as 41% in series [1] (setting [10]) and 36% in series [1] (12% hypoxia, 40 mg/kg i.p., awake rat). Besides, the peak respiratory response in series [1] (setting [11]) is listed as 1338.3 ±49.5 ml/min/kg body weight; in series [1] (12% hypoxia, after 40 mg/kg i.p., awake rat), 856.6 ±73.7 ml/min/kg body weight. Also, the “Minute lung ventilation (peak respiratory response)” value in series [1] (8% hypoxia) is listed as 1947.3 ±66.5 ml/min/kg body weight; in [1] (12% hypoxia), 1484.0 ±92.3 ml/min/kg body weight. Moreover, in series [1] (setting [12]), the “decrease in respiratory frequency” value is 23%. In series [1] (setting [12]), the “decrease of resting ventilation during breathing with atmospheric oxygen” value came to 33%. Also, the muscle rigidity result in series [9] is given as “diminishes muscle rigidity”. Moreover, the “action towards TRPV1 vanilloid receptors” value in series [3] is given as “agonistic action”.

For `O=c1[nH]c2ccccc2n1CCCN1CCC(n2c(=O)[nH]c3cc(Cl)ccc32)CC1` [domperidone, reference compound], the “peak respiratory response in relation” value amounted to 26 ±5% in [4] (11 % hypoxia (O2 in N2)) and 21 ±5% in [4] (14% hypoxia (O2 in N2)).
